# Residues, ends and D or L forms follow the SMILES beside them. *: point of attachment. Cbz = O=C(OCc1ccccc1)*
# How the values were obtained:
# PSA mRNA = PSA mRNA levels in androgen-deprived prostate cancer cells (qPCR with PSA primers); assay type: cell-based, human; conditions: overnight treatment
# Description: (FIG. 7A) VCaP and (FIG. 7B) LNCaP cells were grown in absence of androgen and were overnight treated with DZI-067 (7 uM in VCaP, 2.5 & 5 uM in LnCaP), AIM-100 (7 uM), PLX4032 (7 uM), Casodex, Enzalutamide (10 uM) and DHT (10 nM, 3 Hr). Total RNA was isolated followed by qPCR with AR primers. VCaP, *p=0.022, **p=0.018; LNCaP, *p=0.042, **p=0.047, ***p=0.029. (FIG. 7C) VCaP and (FIG. 7D) LNCaP cells were grown in absence of androgen and were overnight treated with DZ1-067 (7 uM in LAPC4, 2.5 & 5 uM in LnCaP), AIM-100 (7 uM), PLX4032 (7 uM), Casodex, Enzalutamide (10 uM) and DHT (10 nM, 3 Hr). Total RNA was isolated followed by qPCR with PSA primers.
# AR mRNA = AR mRNA levels in androgen-deprived prostate cancer cells (qPCR with AR primers); assay type: cell-based, human; conditions: androgen-deprived LAPC4 and LNCaP cells, overnight treatment
# [1] = system: H4 Y88-phosphorylation (ACK1); assay: Endogenous H4 pY88-phosphorylation in LNCaP cells (pY88-H4 immunoprecipitation / H4 immunoblot); assay type: cell-based, human; conditions: 16 hrs
# Description: FIGS. 9A-9E show ACK1 phosphorylates histone H4 at Tyrosine 88. (FIG. 9A) peptide were spotted followed by immunoblotting with indicated antibodies. (FIG. 9B) Equimolar amounts of purified ACK1 and H4 proteins were incubated in the presence of AIM-100 (100 nM) and reaction subjected to immunoblotting with pTyr antibodies. (FIG. 9C) In vitro kinase assay performed using purified ACK1 and H4, followed by immunoblotting with pY88-H4 antibodies. (FIG. 9D) H4 Y88-phosphorylation in vivo. LNCaP cells were treated with DZI-067, AIM-100 or Enzalutamide (7 uM, 16 hrs). The nuclear lysates were immunoprecipitated with pY88-H4 antibodies followed by immunoblotting with H4. Lower panel is input lysate. (FIG. 9E) LNCaP cells were treated with Crizotinib (1 uM, 16 hrs). The cell lysates were immunoprecipitated with pY88-H4 antibodies followed by immunoblotting with H4 (upper panel).
# To explore the sensitivity of endogenous H4 pY88-phosphorylation to ACK1 inhibitor, LNCaP cells were treated with DZI-067, AIM-100 or Enzalutamide.
# Applicant also assessed the sensitivity of endogenous H4 pY88-phosphorylation to small molecule inhibitor, Crizotinib, also known as Xalkori (Pfizer). […] It is approved for treatment of some non-small cell lung carcinoma (NSCLC).
# CRPC patients = conditions: cited from earlier work
# AR protein levels = AR protein levels in androgen deprived prostate cancer cells (immunoblotting); assay type: cell-based, human; conditions: LNCaP cells, MG 132 10 uM 6 hr, in presence or absence of AIM-100
# Description: (FIG. 6A) Androgen starved LAPC4 cells were treated with DHT (10 nM, 16 Hrs), AIM-100, DZI-067, Enzalutamide or PLX4032 (7 uM, 36 Hr) and AR, pACK1 and Actin levels were determined by immunoblotting (IB). The relative level of AR is shown below. (FIG. 6B) Androgen deprived LNCaP and VCaP cell were untreated or treated with 2.5, 5 and 10 uM of AIM-100 and lysates were immunoblotted. The quantitation of AR expression is shown. (FIG. 6C) Androgen deprived LNCaP and VCaP cell were untreated or treated with 2.5, 5 and 10 uM of DZI-067 and lysates were immunoblotted. The quantitation of AR expression is shown. (FIG. 6D) LNCaP cells were transfected with control and Ack1 siRNAs followed by immunoblotting. (FIG. 6E) LNCaP cells treated with AIM-100 (7 uM, 16 hr) or MG 132 (10 uM, 6 hr) were immunoblotted with AR antibodies. […]
# AR has been known to interact with an ubiquitin E3 ligase, RNF6, causing AR ubiquitination, which in turn promoted AR transcriptional activity (Xu, K. et al. (2009) Cancer Cell 15(4):270-282). To determine whether post-translational modification has role to play in suppression of AR levels upon Ack1 kinase inhibition, LNCaP cells were treated with proteosomal inhibitor, MG-132 and AR levels were measured in presence or absence of AIM-100.
# WEE1 = conditions: yeast and mammalian cells; cited from earlier work
# IDH2 transcript = assay: Epigenetic marks and IDH2 transcript levels in melanoma cancer cells; assay type: cell-based, human
# [2] = system: WEE1 expressing cancer cell lines; conditions: cited from earlier work
smiles,measurement,setting,value
CC(O)(CS(=O)(=O)c1ccc(F)cc1)C(=O)Nc1ccc(C#N)c(C(F)(F)F)c1 (stereo not drawn) [Casodex],PSA mRNA levels,PSA mRNA,significantly suppressed PSA mRNA levels
same,AR mRNA levels,AR mRNA,no significant change in AR mRNA levels
C[C@@H](Oc1cc(-c2cnn(C3CCNCC3)c2)cnc1N)c1c(Cl)ccc(F)c1Cl [Crizotinib],endogenous pY88-phosphorylation of H4,[1]; 1 uM,significant loss of endogenous pY88-phosphorylation of H4
"C[C@]12CCC(=O)C[C@@H]1CC[C@@H]1[C@@H]2CC[C@]2(C)[C@@H](O)CC[C@@H]12 [DHT, dihydrotestosterone]",endogenous pY88-phosphorylation of H4,[1]; 7 uM,unaffected
same,AR mRNA levels,AR mRNA,no significant change in AR mRNA levels
CNC(=O)c1ccc(N2C(=S)N(c3ccc(C#N)c(C(F)(F)F)c3)C(=O)C2(C)C)cc1F [Enzalutamide],CRPC patients in whom treatment is effective,CRPC patients,12 out of 30
same,overall survival advantage,CRPC patients,4-6 months
same,time to relapse of the most responding patients,CRPC patients,≤ 2 years
same,endogenous pY88-phosphorylation of H4,[1]; 7 uM,unaffected
same,PSA mRNA levels,PSA mRNA,significantly suppressed PSA mRNA levels
same,AR mRNA levels,AR mRNA,no significant change in AR mRNA levels
CC(C)C[C@@H](C=O)NC(=O)[C@H](CC(C)C)NC(=O)[C@H](CC(C)C)NC(=O)OCc1ccccc1 [MG-132] (Cbz-Leu-Leu-Leu-aldehyde),loss of AR caused by Ack1 kinase inhibition,AR protein levels,did not prevent loss of AR
C=CCn1c(=O)c2cnc(Nc3ccc(N4CCN(C)CC4)cc3)nc2n1-c1cccc(C(C)(C)O)n1 [MK-1775],WEE1 epigenetic activity,WEE1,inhibited WEE1 epigenetic activity
same,histone transcriptional suppression,WEE1,robustly reversed histone transcriptional suppression
same,IDH2 transcript levels,IDH2 transcript,increasing IDH2 transcript levels
same,WEE1 epigenetic marks,IDH2 transcript,reversed epigenetic marks
same,apoptosis,[2],selectively induces apoptosis
CCCS(=O)(=O)Nc1ccc(F)c(C(=O)c2c[nH]c3ncc(-c4ccc(Cl)cc4)cc23)c1F [PLX4032],AR mRNA levels,AR mRNA,no significant change in AR mRNA levels
